According to PMC10641831 (Journal of Medicinal Chemistry, 2023):
Where “and” joins values, the source holds several entries; their conditions need not be identical. Equal values may be shown once. Read-outs that look alike come from different tables or passages of the source. Numbered stars: 1 amine (or outer) side, 2 acyl side, 3 side chain; on linkers, the order of the positions; unused ones are H or OH. Bridge positions count the residues as written; N and C are the ends. Square brackets hold non-standard residues; d marks the D form. Peptide text beside a SMILES is read from it. AMPB(E) = O=C(c1ccc(/N=N/c2ccc(CN[*:1])cc2)cc1)[*:2]; X2 = O=C(c1ccc(/N=N\c2ccc(CN[*:1])cc2)cc1)[*:2]

Legend:
[1] = molecular target: T1, hV1bR (Homo sapiens, UniProt P47901); test: IP-One accumulation assay, agonist function, HEK293 cells expressing hV1bR; type: cell-based; details: for Emax: HEK293, relative to the effect of VP, read-out: V1bR Emax ± SEM; for V1bR E/Z ratio EC50: ratio of EC50 of E- and Z-isomer
T1 construct: expressed in transfected cells
T1 sequence (P47901 1-424): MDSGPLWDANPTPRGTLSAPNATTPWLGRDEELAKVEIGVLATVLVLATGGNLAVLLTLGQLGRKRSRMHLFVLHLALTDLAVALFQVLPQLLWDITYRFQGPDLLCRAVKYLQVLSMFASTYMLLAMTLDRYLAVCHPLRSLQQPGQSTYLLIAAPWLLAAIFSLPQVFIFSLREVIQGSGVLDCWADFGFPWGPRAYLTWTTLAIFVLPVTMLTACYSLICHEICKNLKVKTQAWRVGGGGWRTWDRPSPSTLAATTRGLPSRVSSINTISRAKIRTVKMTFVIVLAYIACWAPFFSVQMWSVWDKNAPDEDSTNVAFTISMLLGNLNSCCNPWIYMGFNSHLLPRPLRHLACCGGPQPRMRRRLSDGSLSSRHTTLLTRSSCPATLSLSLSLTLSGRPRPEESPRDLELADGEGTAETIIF

[2] = molecular target: T2, hV1aR (Homo sapiens, UniProt P37288); test: IP-One accumulation assay, agonist function, HEK293 cells expressing hV1aR; type: cell-based; details: for EC50: IP-One, stable HEK293 hV1aR, μM, read-out: V1aR EC50
T2 construct: expressed in transfected cells

[3] = Photostationary state by analytical C18-RP-HPLC; type: physicochemical; details: for PSS (E → Z): irradiation with 340 nm, HEPES buffer; for PSS (Z → E): irradiation with 420 nm (8–17) or 528 nm (18, 19)
Protocol: All photoprobes were investigated regarding their photophysical properties in aqueous buffer (pH 7.5), mimicking the conditions of the biological functional assays.
1.3.2. Photostationary States
Photostationary states (PSS) were measured on analytical C18-RP-HPLC (flow: 0.3 mL/min, solvent A: H2O (0.05% TFA), solvent B: MeCN). To determine the PSS of the photoswitches, the samples (in 0.1 mM in HEPES buffer + 1% DMSO, pH 7.5) were irradiated first with 340 nm to get the Z-isomer. Afterwards, the sample was irradiated with 420 nm (8-17) or 528 nm (18 and 19), respectively, to get back to the E-isomer. The samples were measured at the isosbestic points.

[4] = molecular target: T3, hOTR (Homo sapiens, UniProt P30559); test: IP-One accumulation assay, agonist function, HEK293 cells expressing hOTR; type: cell-based; details: for potency difference between the E and Z isomers at OTR: EC50 E vs Z; for agonist character at OTR: IP-One assay; for EC50: supplementary CSV
T3 construct: expressed in transfected cells
T3 sequence (P30559 1-389): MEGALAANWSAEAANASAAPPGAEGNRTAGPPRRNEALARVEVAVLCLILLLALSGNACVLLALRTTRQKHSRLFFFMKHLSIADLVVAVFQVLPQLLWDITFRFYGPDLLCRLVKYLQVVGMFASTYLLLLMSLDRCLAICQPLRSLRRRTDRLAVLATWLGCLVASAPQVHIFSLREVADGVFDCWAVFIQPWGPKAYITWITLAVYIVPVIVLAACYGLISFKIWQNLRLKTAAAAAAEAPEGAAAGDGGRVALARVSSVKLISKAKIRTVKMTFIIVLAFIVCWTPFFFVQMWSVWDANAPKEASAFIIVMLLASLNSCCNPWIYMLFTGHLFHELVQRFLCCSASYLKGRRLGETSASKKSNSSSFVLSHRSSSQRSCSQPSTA

[5] = Thermal half-life of the Z-isomer (UV/vis, 96-well plate); type: physicochemical; details: for t1/2 (thermal half-life, Figure S50): 50 µM in HEPES buffer + 0.25% DMSO, pre-irradiated with 340 nm; for t1/2 (thermal half-life Z to E): preirradiation with 340 nm
Source text: All photoprobes were investigated regarding their photophysical properties in aqueous buffer (pH 7.5), mimicking the conditions of the biological functional assays. […] Upon irradiation with 340 nm light for 10 s and monitoring via UV/vis spectroscopy, all compounds could be switched to the Z-isomer, reaching the photostationary state (PSS). Compounds 8–17 containing azobenzene could be switched back to the E-isomer by irradiation at 420 nm for 60 s. Compounds 18 and 19 containing arylazopyrazole could be reverted to the E isomer by using 528 nm light. […] The PSS, when switched to the Z-isomer, was consistently good, with a PSS of 81–95%. […] The thermal half-lives of 10 and 12 were also measured at 37 °C, representing the temperature during the biological assays. As expected, the thermal half-lives decreased, however, the ratio of E and Z isomers remained stable during the incubation period of the biological assays (1 h).
Starting materials and commercial reagents were purchased from Acros, Alfa Aesar, Fisher, Fluka, Fluorochem, Merck (Sigma-Aldrich), TCI and VWR and were used without further purification. Solvents were used in p.a. quality or dried according to common procedures if necessary. All reactions with oxygen- or moisture-sensitive reagents were carried out in glassware that was dried before use by heating under vacuum. Dry nitrogen or argon was used for an inert gas atmosphere. All NMR spectra were measured at room temperature (20 °C) using a Bruker Avance 400 (400 MHz for ^1H and 101 MHz for ^13C) or a Bruker Avance 600 (600 MHz for ^1H and 151 MHz for ^13C) NMR spectrometer. All chemical shifts are reported in δ-scale as parts per million [ppm] (multiplicity, coupling constant J, number of protons) relative to the solvent residual peaks. Coupling constants J are given in hertz [Hz]. Abbreviations used for signal multiplicity: ^1H NMR: s = singlet, d = doublet, dd = doublet of doublets, ddd = doublet of doublets of doublets, dt = doublet of triplets, t = triplet, td = triplet of doublets, q = quartet, and m = multiplet. All mass spectra were recorded on an Agilent Q-TOF 6540 UHD, Finnigan MAT SSQ 710 A, Jeol AccuTOF GCX or ThermoQuest Finnigan TSQ 7000 spectrometer. Absorption spectra were recorded on an UV/vis Agilent Cary 50 spectrometer. Thermal half-lives were measured on a 96-well plate in a Thermo Scientific Multiskan Spectrum. Analytical TLC was performed on silica gel-coated alumina plates (MN precoated TLC-sheets ALUGRAM Xtra SIL G/UV254). Visualization was done using UV light (254 or 366 nm) or staining with ninhydrin solution. Column chromatography was performed on a Biotage Isolera One automated flash purification system with a UV/vis detector. Analytical RP-HPLC was carried out on an Agilent 1220 Infinity LC System (column: P/No 00F-4251-B0, Phenomenex Luna 3 μm C18(2) 100 Å, LC column 150 mm × 2.0 mm). Purification by preparative HPLC was conducted on a preparative HPLC Agilent 1260 Infinity LC System [column: P/No 00G-4253-P0-AX, Phenomenex Luna 10 μm C18(2) 100 Å, LC column 250 mm × 21.2 mm]. The eluent systems were used as specified. After the purification process, solvents were removed by lyophilization. Switching experiments were done with a 340 nm LED (SSC VIOSYS CUD4AF1B, 500 mA, 55 mW), 420 nm LED (ILH-XC01-S410-SC211-WIR200, 800 mA, 440 mW), and 528 nm LED (OSRAM Oslon SSL 80 green, 500 mA, 34 mW). Purity of all photoprobes was >95% as determined by analytical RP-HPLC at 220 nm in DMSO.
1.3.4. Thermal Half-lives
Thermal half-lives were measured in a 96-well plate in a Thermo Scientific Multiskan® Spectrum at 25 °C (and at 37 °C for compounds 10 and 12). The solutions (50 µM in HEPES buffer + 0.25% DMSO) were pre-irradiated with 340 nm. The absorption at 335 nm was measured every 3 h. The data was analyzed using Origin 2021.
0,7 1/2 ExpDec1 Fit of Sheet1 B
Modell ExpDec1 0,35 Modell ExpDec1
0,6 Gleichung y = A 1 *e xp (-x/t1 ) + y0 Gleichung y = A 1 *e xp (-x/t1 ) + y0 […]

[6] = IP-One, stable HEK293 hV1bR, read-out: V1bR EC50 ± SEM
[7] = read-out: activity E-isomer OTR
[8] = read-out: activity Z-isomer OTR

T2 sequence (P37288 whole entry): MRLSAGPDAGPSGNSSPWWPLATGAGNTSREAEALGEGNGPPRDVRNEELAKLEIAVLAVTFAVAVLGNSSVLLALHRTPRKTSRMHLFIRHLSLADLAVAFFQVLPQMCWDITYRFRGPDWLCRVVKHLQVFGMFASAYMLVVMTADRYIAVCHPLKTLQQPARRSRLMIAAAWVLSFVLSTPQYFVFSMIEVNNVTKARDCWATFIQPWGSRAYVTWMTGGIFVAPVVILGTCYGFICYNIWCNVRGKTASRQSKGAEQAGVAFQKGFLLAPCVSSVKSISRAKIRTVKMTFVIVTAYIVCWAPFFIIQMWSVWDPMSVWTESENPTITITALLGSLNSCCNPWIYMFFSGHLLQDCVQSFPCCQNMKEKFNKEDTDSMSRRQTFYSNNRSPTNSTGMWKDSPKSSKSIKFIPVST

SMILES	Emax [1]	EC50 [1, 6]	V1bR E/Z ratio EC50 [1]	EC50 [2]	t1/2 (thermal half-life, Figure S50) ([5]; 25 °C)	t1/2 (thermal half-life Z to E) ([5]; 25 °C, HEPES buffer pH 7.4)	other results
NC(=O)CC[C@@H]1NC(=O)[C@H](Cc2ccccc2)NC(=O)[C@H](Cc2ccc(O)cc2)NC(=O)[C@@H](N)CSSC[C@@H](C(=O)NCc2ccc(/N=N/c3ccc(C(=O)NCC(N)=O)cc3)cc2)NC(=O)[C@H](CC(N)=O)NC1=O [E-13] (H-CYFQNC[AMPB(E)]G-NH2; disulfide 1-6)	45 ± 3%	11.3 µM	1.6	> 10 µM	–	–	–
N=C(N)NCCC[C@H](NC(=O)c1ccc(/N=N/c2ccc(CNC(=O)[C@@H]3CSSC[C@H](N)C(=O)N[C@@H](Cc4ccc(O)cc4)C(=O)N[C@@H](Cc4ccccc4)C(=O)N[C@@H](CCC(N)=O)C(=O)N[C@@H](CC(N)=O)C(=O)N3)cc2)cc1)C(=O)NCC(N)=O [E-14] (H-CYFQNC[AMPB(E)]RG-NH2; disulfide 1-6)	48 ± 2%	4.97 ± 0.754 µM	2.1	> 10 µM	–	–	–
NC(=O)CC[C@@H]1NC(=O)[C@H](Cc2ccccc2)NC(=O)[C@H](Cc2ccc(O)cc2)NC(=O)[C@@H](N)CSSC[C@@H](C(=O)NCc2ccc(/N=N\c3ccc(C(=O)NCC(N)=O)cc3)cc2)NC(=O)[C@H](CC(N)=O)NC1=O [Z-13] (H-CYFQNC[X2]G-NH2; disulfide 1-6)	52 ± 5%	7.23 ± 1.57 µM	1.6	> 10 µM	–	–	–
N=C(N)NCCC[C@H](NC(=O)c1ccc(/N=N\c2ccc(CNC(=O)[C@@H]3CSSC[C@H](N)C(=O)N[C@@H](Cc4ccc(O)cc4)C(=O)N[C@@H](Cc4ccccc4)C(=O)N[C@@H](CCC(N)=O)C(=O)N[C@@H](CC(N)=O)C(=O)N3)cc2)cc1)C(=O)NCC(N)=O [Z-14] (H-CYFQNC[X2]RG-NH2; disulfide 1-6)	67 ± 2%	2.37 ± 0.607 µM	2.1	> 10 µM	–	–	–
CC[C@H](C)[C@@H]1NC(=O)[C@H](Cc2ccc(O)cc2)NC(=O)[C@@H](N)CSSC[C@@H](C(=O)NCc2ccc(/N=N/c3ccc(C(=O)NCC(N)=O)cc3)cc2)NC(=O)[C@H](CC(N)=O)NC(=O)[C@H](CCC(N)=O)NC1=O [compound 10, [AzbL^7/8]-OT] (H-CYIQNC[AMPB(E)]G-NH2; disulfide 1-6)	–	–	–	–	40.8 h	40.8 h	PSS (E → Z) [3]: 86%; PSS (Z → E) [3]: 81%; potency difference between the E and Z isomers at OTR [4]: 3.1 fold and 3 fold; agonist character at OTR [4]: potent agonists; EC50 [4, 7]: 0.0946 ± 0.019 µM; EC50 [4, 8]: 0.0307 ± 0.004 µM; t1/2 (thermal half-life, Figure S50) ([5]; 37 °C): 24 h; t1/2 (thermal half-life Z to E) ([5]; 37 °C): 24 h
CC[C@H](C)[C@@H]1NC(=O)[C@H](Cc2ccc(O)cc2)NC(=O)[C@@H](N)CSSC[C@@H](C(=O)NCc2ccc(/N=N/c3ccc(C(=O)N[C@@H](CC(C)C)C(=O)NCC(N)=O)cc3)cc2)NC(=O)[C@H](CC(N)=O)NC(=O)[C@H](CCC(N)=O)NC1=O [compound 11, [AzbL^7]-OT] (H-CYIQNC[AMPB(E)]LG-NH2; disulfide 1-6)	–	–	–	–	28.8 h	28.8 h	PSS (E → Z) [3]: 87%; PSS (Z → E) [3]: 85%; potency difference between the E and Z isomers at OTR [4]: 2 fold; agonist character at OTR [4]: potent agonists; EC50 [4, 7]: 0.263 ± 0.021 µM; EC50 [4, 8]: 0.134 ± 0.017 µM
N=C(N)NCCC[C@H](NC(=O)[C@@H]1CCCN1C(=O)[C@@H]1CSSC[C@H](N)C(=O)N[C@@H](Cc2ccc(O)cc2)C(=O)N[C@@H](Cc2ccc(/N=N/c3ccccc3)cc2)C(=O)N[C@@H](CCC(N)=O)C(=O)N[C@@H](CC(N)=O)C(=O)N1)C(=O)NCC(N)=O [compound 12, [AzbS^3]-VP]	–	–	–	–	72 h	72 h	potency difference between the E and Z isomers at V1bR (photoswitch window) ([1]; EC50 E vs Z): 5.3 fold and 5 fold; reduced potency at V1aR compared to VP ([2]; EC50 vs VP): > 1000 fold; t1/2 (thermal half-life, Figure S50) ([5]; 37 °C): 33.6 h; t1/2 (thermal half-life Z to E) ([5]; 37 °C): 33.6 h
NC(=O)CC[C@@H]1NC(=O)[C@H](Cc2ccccc2)NC(=O)[C@H](Cc2ccc(O)cc2)NC(=O)[C@@H](N)CSSC[C@@H](C(=O)NCc2ccc(/N=N/c3ccc(C(=O)N[C@@H](CCCN=C(N)N)C(=O)NCC(N)=O)cc3)cc2)NC(=O)[C@H](CC(N)=O)NC1=O [compound 14, [AzbL^7]-VP] (H-CYFQNC[AMPB(E)]RG-NH2; disulfide 1-6)	–	–	–	–	–	–	EC50 ([1]; supplementary CSV, read-out: activity Z-isomer V1bR): 2.37 ± 0.607 µM
